As a reminder, the IC50 is the point on the concentration scale where inhibition reaches its midpoint.

These results are taken from PubChem BioAssay AID790 (SRMLSC, 2007).

The source made the active and inactive calls. No rule for the calls is given here.

The test system of test [1] is S. cerevisiae vps1Δ mutant growth inhibition. In words: vps1Δ single mutant yeast growth suppression – S. cerevisiae, background strain comparison, dose response (AID 790).
Assay in test [2]: as above
Conditions: S. cerevisiae vps1Δ mutant growth inhibition; measured here: background strain growth inhibition.

For the compound `Cc1cccc(-c2c3c(=O)n(C)c(=O)n(C)c3cn2C2CCCCC2)c1`, the IC50 was > 10 µM (inactive) in test [1] and above 10 µM in test [2].
For `c1ccc(-c2ccc(-c3cnc4n3CCCCC4)cc2)cc1`, the values for the IC50 in test [1] and in test [2] were > 10 µM (inactive) and above 10 µM, respectively.
`CC(C)OC(=O)CSc1nnc(-c2ccc(Cl)cc2)n1N`: the IC50 in test [1] was > 10 µM (inactive); in test [2], above 10 µM.
For `Cc1ccc(CN2CCN(/N=C/c3cc(Br)ccc3O)CC2)cc1`, the IC50 in test [1] is > 10 µM (inactive); in test [2] it was above 10 µM.
On to `CCOC(=O)c1cccnc1SCc1cc(=O)n2ccccc2n1`, for which the IC50 in test [1] is > 10 µM (inactive); in test [2], above 10 µM.
`Nc1cc(N)c(OCC(F)(F)F)cc1OCC(F)(F)F`: the IC50 in test [1] was > 10 µM (inactive); in test [2], above 10 µM.
On the same counts, the results for `CN1/C(=C/C2CC(=O)NC2=O)C(C)(C)c2ccccc21` (centres undefined) are > 10 µM (inactive) and above 10 µM.
Turning to `C=C(C)COc1ccc(-c2ncncc2Oc2ccc(OC)cc2)c(O)c1`, the IC50 was > 10 µM (inactive) in test [1] and above 10 µM in test [2].
On to `CC1CN(CCCCOc2ccc(C(C)C)cc2)CC(C)O1` (centres undefined), for which the IC50 was > 10 µM (inactive) in test [1] and above 10 µM in test [2].
For the compound `COc1cc2[nH]c(=S)n(CCCN3CCOCC3)c(=O)c2cc1OC`, the results for the IC50 in test [1] and in test [2] were > 10 µM (inactive) and above 10 µM, respectively.
The matching figures for `Cc1cccc(-n2c(N)c(C(=O)NCCN3CCOCC3)c3nc4ccccc4nc32)c1`: > 10 µM (inactive) and above 10 µM.
Turning to `C/C(CCC12CC3CC(CC(C3)C1)C2)=N\NC(N)=S`, the results for the IC50 in test [1] and in test [2] were 12.7 µM (inactive) and 5.28 µM, respectively.
In the case of `CCOC(=O)c1ccc(NC(=O)c2cn(-c3ccccc3)nc2-c2ccncc2)cc1`, the IC50 in test [1] is > 10 µM (inactive); in test [2] it was 11.5 µM.
The matching figures for `CCOc1cccc(C(=O)Nc2cccnc2)c1`: > 10 µM (inactive) and above 10 µM.
Turning to `COc1ccccc1N1CCN(CC(O)c2ccc3cc[nH]c3c2)CC1` (centres undefined), the IC50 in test [1] is > 10 µM (inactive); in test [2] it was above 10 µM.
The matching figures for `O=C(O)c1ccc(N2CCCCC2)cc1`: > 10 µM (inactive) and above 10 µM.
On to `CCSc1nnc(NC(=O)NCC(F)(F)F)s1`, for which the IC50 in test [1] was > 10 µM (inactive); in test [2], above 10 µM.
For the compound `O=C1OCC2=C1C(c1ccc(F)cc1)Sc1ccccc1N2` (centres undefined), the figures for the IC50 in test [1] and in test [2] were 14.4 µM and above 10 µM, respectively.
On the same counts, the results for `Cc1c(Cl)c([N+](=O)[O-])nn1Cc1ccc(C(=O)N/N=C\c2cccc(Br)c2)o1` are below 0.049 µM and above 10 µM.
On the same counts, the results for `CCCCCOc1ccc(Cl)cc1CN1CCOCC1` are > 10 µM (inactive) and above 10 µM.
`COc1cccc(NC(=O)C2CCCN2C(=O)OCc2ccccc2)c1` (centres undefined): the figures for the IC50 in test [1] and in test [2] were > 10 µM (inactive) and above 10 µM, respectively.
As for `CCc1ccc(C(=O)/C=C/c2ccc([N+](=O)[O-])o2)cc1`, the IC50 was 2.13 µM in test [1] and 20.7 µM in test [2].
Take `O=C(CCl)c1ccc(Cc2ncc(C(F)(F)F)cc2Cl)s1`: the IC50 in test [1] was 9.7 µM (inactive); in test [2] it was 8.68 µM.
As to `Cc1ccnc(N2C(=O)c3cccc4c([N+](=O)[O-])ccc(c34)C2=O)c1`, the half-maximal inhibitory concentration (IC50) was 2.86 µM in test [1] and 4.22 µM in test [2].
On the same counts, the results for `Cc1ccc(OCC(O)CN2CCN(Cc3ccc4c(c3)OCO4)CC2)c(C)c1` (centres undefined) are > 10 µM (inactive) and above 10 µM.
The matching figures for `Cc1cccnc1Nc1nc(-c2ccccn2)cs1`: 4.17 µM and above 10 µM.
As for `Cc1ccc(SC(C)C(=O)Nc2ncn[nH]2)cc1` (centres undefined), the IC50 in test [1] was > 10 µM (inactive); in test [2] it was above 10 µM.
Turning to `CCOC(=O)Cc1c(C)c2ccc(N(CC)CC)cc2oc1=O`, the IC50 in test [1] was > 10 µM (inactive); in test [2] it was above 10 µM.
On the same counts, the results for `Cc1ccc(-c2csc3nnc(SCC(=O)Nc4cccc(C)n4)n23)cc1` are > 10 µM (inactive) and above 10 µM.
Regarding `CC(=O)NC1C(c2nc3ccccc3s2)=C(c2ccccc2)C(=O)N1c1ccc(C)cc1` (centres undefined), the IC50 is 2.18 µM (inactive) in test [1] and 1.92 µM in test [2].
Turning to `O=c1c2c3c(sc2ncn1/N=C/c1ccc([N+](=O)[O-])o1)CCCC3`, the IC50 in test [1] is 2.19 µM (inactive); in test [2], 1.59 µM.
Take `CCOCCCNC(=O)C1CCN(C(=O)N(C)C)CC1`: the results for the IC50 in test [1] and in test [2] were > 10 µM (inactive) and above 10 µM, respectively.
On the same counts, the results for `COc1ccc(-c2cc(N)n(S(=O)(=O)c3c(F)c(F)c(F)c(F)c3F)n2)cc1OC` are 2.29 µM (inactive) and 1.08 µM.
Take `O=C(c1ccc(Cl)cc1Cl)N1CCC(c2nc3c(nnn3Cc3ccco3)c(=O)[nH]2)CC1`: the IC50 in test [1] was > 10 µM (inactive); in test [2], above 10 µM.
Turning to `COc1ccc(N2CCN(c3oc(-c4ccco4)nc3C#N)CC2)cc1`, the IC50 in test [1] was > 10 µM (inactive); in test [2], above 10 µM.
The matching figures for `COCCNc1cc(C)nc2c3c(C)cc(C)nc3nn12`: > 10 µM (inactive) and above 10 µM.
On the same counts, the results for `Cc1ccc(C)c(NS(=O)(=O)c2cc(C(=O)N3CCc4ccccc4C3)ccc2Cl)c1` are > 10 µM (inactive) and 6.88 µM.
For the compound `C=CCc1ccccc1OCC(O)CN1CCN(Cc2ccc3c(c2)OCO3)CC1` (centres undefined), the values for the IC50 in test [1] and in test [2] were > 10 µM (inactive) and above 10 µM, respectively.
The matching figures for `O=C(C1COc2ccccc2O1)N1CCN(Cc2ccc3c(c2)OCO3)CC1` (centres undefined): > 10 µM (inactive) and above 10 µM.
The matching figures for `COc1ccccc1N1CCN(Cc2ccccc2F)CC1`: > 10 µM (inactive) and above 10 µM.
On the same counts, the results for `O=C(c1ccco1)N1CCN(c2ncnc3c2[nH]c2ccccc23)CC1` are > 10 µM (inactive) and above 10 µM.
Consider `O=C(Nc1nc(-c2ccccn2)cs1)c1ncc(Cl)c(Cl)c1Cl`, for which the half-maximal inhibitory concentration (IC50) in test [1] is 2.06 µM; in test [2] it was 13.3 µM.
As for `COc1ccc2nc(NCCCNC(=O)c3cc(OC)c(OC)c(OC)c3)c(C#N)cc2c1`, the IC50 in test [1] was > 10 µM (inactive); in test [2] it was above 10 µM.
Consider `CCOC(=O)C1CCN(Cc2cnc(Oc3ccc(Cl)cc3C)s2)CC1`, for which the IC50 was > 10 µM (inactive) in test [1] and above 10 µM in test [2].
On to `CCCn1nc([N+](=O)[O-])c(C(C#N)c2nc3ccccc3s2)c(Cl)c1=O` (centres undefined), for which the IC50 in test [1] is 1.5 µM; in test [2], 2.16 µM.
On the same counts, the results for `N#CC1=C(N)C(C#N)(C#N)C(c2cccnc2)C2CC(c3ccccc3)CC=C12` (centres undefined) are 3.03 µM (inactive) and 2.97 µM.
Turning to `O=C(NC1CCN(Cc2ccccc2)CC1)C1COc2ccccc2O1` (centres undefined), the values for the IC50 in test [1] and in test [2] were > 10 µM (inactive) and above 10 µM, respectively.
With `COc1ccc(Cl)cc1NC(=O)C(C)N1CCN(C/C=C/c2ccccc2)CC1` (centres undefined), the values for the IC50 in test [1] and in test [2] were > 10 µM (inactive) and 15 µM, respectively.
The matching figures for `Cc1nn(-c2ccccn2)c(C)c1Oc1ccccc1O`: > 10 µM (inactive) and above 10 µM.
On the same counts, the results for `O=C(CC(=O)c1cc(Cl)ccc1O)c1ccccc1` are 2.11 µM and 12.7 µM.
On the same counts, the results for `O=C(NCC(=O)N(c1cccnc1)C(C(=O)NCc1ccco1)c1ccccc1)c1ccco1` (centres undefined) are > 10 µM (inactive) and above 10 µM.
For `CCOC(=O)c1cc2c(ccn2C)n1CC(=O)N1CCN(c2ccccc2OC)CC1`, the IC50 in test [1] was > 10 µM (inactive); in test [2], above 10 µM.
The matching figures for `Cc1cc(N2C(=O)C3CCCN3C2c2sccc2C)no1` (centres undefined): > 10 µM (inactive) and above 10 µM.
The matching figures for `Cc1ccc(C2(C(F)(F)F)N=C3Sc4cc(C)cc(C)c4N3C(=O)N2)cc1` (centres undefined): 1.37 µM (inactive) and 1.08 µM.
The matching figures for `Cc1ccc(NS(=O)(=O)c2cc(C(=O)N3CCOCC3)ccc2C)cc1`: > 10 µM (inactive) and above 10 µM.
For `CCOC(=O)c1c(CN2CCCCC2C)oc2ccc(OC)cc12` (centres undefined), the IC50 in test [1] is > 10 µM (inactive); in test [2], above 10 µM.
For the compound `O=C(OCn1ncc(Cl)c(Cl)c1=O)c1cccc(C(F)(F)F)c1`, the figures for the IC50 in test [1] and in test [2] were 3.35 µM and 3.51 µM, respectively.
On the same counts, the results for `O=C(NC(C(=O)c1ccccc1)N1CCCCC1)c1ccccc1` (centres undefined) are > 10 µM (inactive) and above 10 µM.
`CCOC(=O)C1=C(CSc2nc(-c3ccccc3)ccc2C#N)OC(N)=C(C#N)C1c1cccnc1` (centres undefined): the IC50 in test [1] was > 10 µM (inactive); in test [2], above 10 µM.
As to `COc1ccc(C2CC(=O)C3=C(C2)NC(C)=C(C(=O)Nc2ccccc2C)C3c2coc3ccc(C)cc3c2=O)cc1OC` (centres undefined), the IC50 in test [1] is > 10 µM (inactive); in test [2] it was above 10 µM.
On the same counts, the results for `O=C(NCc1ccc2c(c1)OCO2)c1ccc(-n2cnnn2)cc1` are > 10 µM (inactive) and above 10 µM.
For the compound `FC(F)(F)COc1nc(N2CCCCC2)nc(N2CCNCC2)n1`, the IC50 is > 10 µM (inactive) in test [1] and above 10 µM in test [2].
Regarding `CN1C(=O)/C(=C/c2cccn2-c2ccc3ccccc3c2)C(=O)NC1=S`, the IC50 was 14.2 µM (inactive) in test [1] and 6.58 µM in test [2].
On the same counts, the results for `O=C(Nc1cc(C(F)(F)F)ccc1-n1cncn1)c1ccc(-c2ccccc2)cc1` are > 10 µM (inactive) and above 10 µM.
In the case of `O=C(O)Cn1c(SCCOc2ccccc2F)nc2ccccc21`, the values for the IC50 in test [1] and in test [2] were > 10 µM (inactive) and above 10 µM, respectively.
In the case of `CCN(CC)C(=O)C1CCN(Cc2ccc(Br)cc2)CC1`, the figures for the IC50 in test [1] and in test [2] were > 10 µM (inactive) and above 10 µM, respectively.
The matching figures for `CC1CCCN(CCOCCOc2ccc(Cl)cc2Br)C1` (centres undefined): > 10 µM (inactive) and above 10 µM.
